Measured values reported in PubChem BioAssay (NCI).
Values joined by “and” are separate entries in the source; they are usually repeats but may differ in a detail not shown here. Equal entries are not always repeated.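 Following 48 hours of exposure in 96-well plates, responses at five concentrations were used to interpolate endpoints linearly. GI50 marks 50% less growth. Definition used: TGI = concentration required for complete inhibition of growth.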

Key:
Test in all cases: DTP human tumour cell line panel, 48 h
[1] = tested on: COLO 205 colon
[2] = tested on: DU-145 prostate
[3] = tested on: HCT-15 colon
[4] = tested on: HOP-62 NSCLC
[5] = tested on: IGROV1 ovarian
[6] = tested on: MDA-MB-231 breast
[7] = tested on: NCI-H226 lung
[8] = tested on: NCI-H522 lung
[9] = tested on: SK-MEL-5 melanoma
[10] = tested on: SR leukemia

| Compound | GI50 [1] [µM] | TGI [1] [µM] | GI50 [2] [µM] | TGI [2] [µM] | GI50 [3] [µM] | TGI [3] [µM] | GI50 [4] | TGI [4] [µM] | GI50 [5] [µM] | TGI [5] [µM] | GI50 [6] | TGI [6] [µM] | GI50 [7] [µM] | TGI [7] [µM] | GI50 [8] | TGI [8] [µM] | GI50 [9] | TGI [9] [µM] | GI50 [10] [µM] | TGI [10] [µM] |
| --- | --- | --- | --- | --- | --- | --- | --- | --- | --- | --- | --- | --- | --- | --- | --- | --- | --- | --- | --- | --- |
| O=[As]c1ccc(C(=O)c2ccc(Oc3ccccc3)cc2)cc1 (configuration not stated) | 0.0494 | 0.169 | 0.0348 | 0.123 | 0.0362 | 0.15 | 0.0356 µM | 0.105 | 0.044 | 0.219 | 0.0547 µM | 0.192 | 0.106 | 0.226 | 0.0219 µM | 0.0865 | 0.0539 µM | 0.174 | < 0.0168 | 0.0736 |
| O=C(Nc1cccc(C(F)(F)F)c1)c1cc(Br)cc(Br)c1O | – | 9.71 | – | > 10 | – | > 10 | – | > 10 | – | > 10 | – | > 10 | – | 9.42 | – | 9.82 | – | 3.58 | – | > 10 |
| CCOC(=O)Cc1csc(NC(=O)COC(=O)c2ccc(OC)cc2)n1 | > 95.9 | > 100 | 57.2 | > 100 | > 100 | > 100 | > 78.8 µM | > 100 | 2.99 | 8.77 | > 78.3 µM | > 100 | > 100 | > 100 | 19.6 µM | 38.5 | > 100 µM | > 100 | 6.04 | – |
| O=C(CC(=O)c1ccccc1)c1ccccc1 | 22.5 | > 100 | 11.9 | 65.3 | 2.06 | 6.82 | 7.72 µM | 39.6 | 19.9 | > 100 | > 100 µM | > 100 | 37.2 | > 100 | 29.3 µM | > 100 | 11.5 µM | 32.4 | 11.7 | > 100 |
| O=C(Nc1cc(-c2cccnc2)nc(NCCCN2CCOCC2)n1)c1cc(Br)cc(C(F)(F)F)c1 | 1.77 | 3.47 | 6.7 | 19.1 | 1.92 | 5.28 | 2.71 µM | 9.98 | 4.67 | 19.5 | 1.79 µM | 3.93 | 9.3 | 22.7 | 1.95 µM | 5.31 | 1.64 µM | 3.02 | 2.6 | 41.7 |
| O=C1c2ccccc2-c2c1c1ccccc1c(=O)n2-c1ccccc1 | – | > 100 | – | > 100 | – | > 100 | – | 14.9 | – | > 52.7 | – | 32.4 | – | 41.4 | – | > 100 | – | 52 | – | > 100 |
| O=C(c1ccccc1)C1C(C(=O)c2ccccc2)C(c2ccccc2)N(c2ccccc2)C1c1ccccc1 (configuration not stated) | – | > 100 | – | > 100 | – | > 100 | – | > 100 | – | > 100 | – | > 100 | – | > 100 | – | > 100 | – | > 100 | – | > 100 |
| N#Cc1c2c(c(-c3cccs3)n(C3OC(CO)C(O)C(O)C3O)c1=S)CCc1ccccc1-2 (configuration not stated) | – | > 100 | – | > 100 | – | > 100 | 14.9 µM and 38.5 µM | > 100 | – | > 100 | 15.5 µM and 37.3 µM | > 100 | – | > 100 | 12.8 µM and 3.62 µM | > 100 | 6.47 µM and 28.4 µM | > 100 | – | > 100 |
| COc1cc([C@@H]2c3cc4c(cc3C(OC3O[C@@H]5COC(C)O[C@H]5[C@H](O)[C@H]3O)C3COC(=O)[C@@H]32)OCO4)cc(OC)c1O (some centres not stated) | 3.68 | 21.3 | 1.2 | 5.78 | 8.4 | > 50 | 0.619 µM | 2.97 | 2.95 | > 50 | 7.25 µM | > 40.4 | 0.792 | 7.25 | 0.65 µM | 4.91 | 0.861 µM | 7.96 | 0.0276 | – |
| COc1cccc(C2=C(c3cn(C)c4cccc(OC)c34)C(=O)NC2=O)c1 | 6.48 | > 20.3 | 10.7 | > 25 | 3.41 | > 25 | 18.8 µM | > 25 | 7.49 | > 25 | 17.9 µM | > 25 | > 25 | > 25 | 1.67 µM | > 19.7 | 7.36 µM | > 25 | 2.08 | > 25 |
| Oc1c(CN2CCOCC2)cc(COCc2ccccc2)c2cccnc12 | 16 | 67.2 | 4.73 | > 100 | 0.286 | 13.3 | 1.48 µM | > 100 | 3.85 | > 100 | 6.48 µM | > 100 | 4.65 | 36.8 | 1.79 µM | 8.56 | 2.03 µM | 5.43 | 0.681 | 17.9 |
| Cc1sc2ncn(Cc3ccc(Cl)c(Cl)c3)c(=O)c2c1C | 63.2 | > 100 | 44.3 | > 100 | 19.4 | > 100 | 14 µM | 36.7 | 9.28 | 42.8 | 24.7 µM | 77.9 | > 100 | > 100 | 13.1 µM | 73.9 | 54.4 µM | > 100 | 29.8 | > 100 |
| O=C(Nc1ccc(I)cc1F)c1cc(I)ccc1O | 7.17 | 24 | 0.873 | > 100 | 0.452 | 19.7 | 0.815 µM | 3.4 | 0.611 | > 100 | 0.639 µM | 2.64 | 0.739 | 6.11 | 0.327 µM | 21.8 | 0.285 µM | 0.807 | 1.38 | > 100 |
| CCOC(=O)/C(C#N)=C/Nc1ccc(-c2nc3ccccc3[nH]2)cc1 | 28.8 | > 100 | 66.6 | > 100 | 34.1 | > 100 | 31.1 µM | 74.7 | 22.7 | > 100 | 18.1 µM | 45.1 | > 100 | > 100 | 24 µM | > 100 | 28.5 µM | > 100 | 40.8 | > 100 |
